Source: paper PMC4907197 (Applied and Environmental Microbiology, 2016)

What was measured:
KES23460 = target: T1, KES23460 (Pseudomonas sp. AAC, UniProt A0ABD3YRH9); experiment: KES23458-coupled NADH formation, A340; format: biochemical; conditions: NAD, pH […]
T1 construct: gene FG99_15390
T1 sequence (A0ABD3YRH9 1-498): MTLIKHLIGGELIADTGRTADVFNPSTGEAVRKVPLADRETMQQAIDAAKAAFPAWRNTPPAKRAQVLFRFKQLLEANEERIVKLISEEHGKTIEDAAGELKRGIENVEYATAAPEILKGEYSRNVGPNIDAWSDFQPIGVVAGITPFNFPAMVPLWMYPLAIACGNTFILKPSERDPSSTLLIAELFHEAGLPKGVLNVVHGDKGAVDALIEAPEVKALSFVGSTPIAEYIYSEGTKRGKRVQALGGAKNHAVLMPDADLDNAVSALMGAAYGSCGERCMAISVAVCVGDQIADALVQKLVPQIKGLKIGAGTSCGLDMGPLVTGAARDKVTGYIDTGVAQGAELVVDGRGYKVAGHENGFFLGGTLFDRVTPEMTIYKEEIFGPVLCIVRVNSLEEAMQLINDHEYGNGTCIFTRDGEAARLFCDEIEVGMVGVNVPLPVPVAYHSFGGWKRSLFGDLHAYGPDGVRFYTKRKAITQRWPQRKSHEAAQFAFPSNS

KES23458 = target: T2, KES23458 (Pseudomonas sp. AAC, UniProt Z9SKW1E3X5); experiment: X-ray crystallography; mass spectrometry; format: binding; conditions: crystal density atypical of PLP (PLP'), no aldimine seen; MS shows aldimine-bound unmodified PLP; covalent (Lys288 presumed); native structure 1.24 Å
T2 construct: full length minus N-terminal Met by mass spectrometry; homodimer; phospho-His31 and phospho-His360 observed; deconvoluted MS peak 50,399 (reduced with PLP)
T2 sequence (Z9SKW1E3X5 22-468): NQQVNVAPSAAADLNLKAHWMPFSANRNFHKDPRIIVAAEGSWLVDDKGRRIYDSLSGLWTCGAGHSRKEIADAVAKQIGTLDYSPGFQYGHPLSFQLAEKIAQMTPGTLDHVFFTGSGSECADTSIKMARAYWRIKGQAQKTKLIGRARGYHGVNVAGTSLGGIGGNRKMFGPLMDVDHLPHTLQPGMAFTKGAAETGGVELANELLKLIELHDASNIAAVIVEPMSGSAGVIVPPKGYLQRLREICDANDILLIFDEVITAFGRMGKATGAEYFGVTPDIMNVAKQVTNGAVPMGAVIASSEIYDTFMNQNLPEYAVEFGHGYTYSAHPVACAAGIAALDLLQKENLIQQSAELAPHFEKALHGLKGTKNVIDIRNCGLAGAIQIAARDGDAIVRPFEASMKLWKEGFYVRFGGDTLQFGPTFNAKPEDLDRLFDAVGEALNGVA

CC(C)(COP(=O)(O)OP(=O)(O)OC[C@H]1O[C@@H](n2cnc3c(N)ncnc32)[C@H](O)[C@@H]1OP(=O)(O)O)[C@@H](O)C(=O)NCCC(=O)NCCS [CoA]
KES23458-coupled NADH formation, A340 (KES23460; co-substrate malonate semialdehyde formed in situ): In the presence of CoA, the transthioesterification step was observed to be significantly faster

Cc1ncc(COP(=O)(O)O)c(C=O)c1O [PLP]
X-ray crystallography; mass spectrometry (KES23458): with the mass gain corresponding to aldimine-bound unmodified PLP

O=CCC(=O)O [malonic acid semialdehyde]
KES23458-coupled NADH formation, A340 (KES23460; formed in situ from […] beta-alanine and pyruvate by KES23458, with or without CoA): significant activity with only one of the substrates tested, malonic acid semialdehyde
